Where a SMILES comes first, the peptide text is derived from it. The star is where a group is joined. Cbz = O=C(OCc1ccccc1)*

The record followed here is US11702402B2, “Small molecules that block proteasome-associated ubiquitin receptor RPN13 function and uses thereof” (DANA-FARBER CANCER INSTITUTE, INC., priority 2018, dated 2023).

One series has as its target RPN13 (Homo sapiens, UniProt Q16186). As to the kind of experiment: Rpn13 immunoblot in MM.1S cells. It counts as cell-based. Further details: endogenous in cells; host or cells: MM.1S; MM.1S-CRBN KO; RPMI-8226; ANBL6.BR. As for the experimental part:
Protein lysates were loaded on SDS-PAGE and transferred to PVDF membrane, and then immunoblotted with anti-alpha tubulin and Rpn13 antibodies.
In FIG. 17, MM.1S cells were treated with RA190 or JQRA at 200 nM and 400 nM, respectively, for 48 hours; and treated with RA190 or JQRA at 200 nM and 800 nM, respectively, for 48 hours. Protein lysates were loaded on SDS-PAGE and transferred to PVDF membrane, and then immunoblotted with anti-alpha tubulin and Rpn13 antibodies.
MM.1S cells, which were treated with DMSO control, bortezomib, or WL40 at indicated concentration for 3 hours; protein lysates were analyzed for different proteasome activities (CT-L, chymotrypsin-like; T-L, trypsin-like; C-L, caspase-like). FIG. 20B is a bar graph showing percent proteasome activity after normalization with DMSO control (mean±SD; n=3). Recombinant 20S proteasome was incubated with DMSO, bortezomib, or WL40 for 30 minutes, followed by assessment of the above-noted proteasome activities. FIG. 20C MM.1S cells were pretreated with exemplary proteasome inhibitor MG132 (10 μM) for 1 hour, followed by addition of WL40 (400 nM) for 8 hours. […] Total protein lysates were subjected to immunoblots for Rpn13 and α-tubulin. […] FIG. 20E ANBL6.BR cells were treated with WL40 (400 nM) or RA190 (500 nM) for 16 hours; protein lysates were subjected to immunoblot analysis using anti-Rpn13 or anti-β-actin Abs.
Cellular protein extracts were prepared using RIPA lysis buffer (50 mM Tris-HCl, 150 mM NaCl, 1% NP-40, 0.5% sodium deoxycholate, and 0.1% SDS). Protein lysates were subjected to immunoblotting using antibodies against poly ADP ribose polymerase (PARP, BD Bioscience Pharmingen, San Diego, Calif.), caspase 3, caspase 8, p53 (Santa Cruz Biotechnology), caspase 9, p-eIF2a (Abeam, Cambridge, Mass.), caspase 7, cyclin B1, CDC25C, CDCl2, p21, Rpn13, PERK, BIP, Calnexin, GFP, LC3A/B, α-tubulin (Cell Signaling, Beverly, Mass.), polyubiquitin (Enzo Life Sciences, Inc., Farmingdale, N.Y.), or β-actin (Sigma-Aldrich, St. Louis, Mo.).
Next, it was examined whether WL40 decreases cellular Rpn13 levels in MM cells. MM.1S cells were treated with various concentrations of WL40 (20 0 nM, 400 nM, or 800 nM) for 4 hours, 8 hours, and 16 hours; protein lysates were then analyzed for Rpn13 levels using immunoblot analysis. […] Decrease in Rpn13 levels was detectable as early as 8 hours after WL40 treatment and maximally (95%) reduced at 16 hours. Rpn13 protein level reduction was not observed with RA190 treatment (FIG. 19E, lower panel). There was no change in protein levels of tubulin, used as a loading control (FIG. 19E). To further corroborate the findings, MM.1S cells were treated with WL40, and then analyzed intracellular alterations in Rpn13 using flow cytometry.
For orientation: Immunoblotting shows a protein as a band on a membrane.

The test system of series [1] is Ub-tagged GFP that is constitutively targeted for proteasomal degradation. The experiment in a line: Ub-GFP (GFPu-1) reporter cell line immunoblot. The following applies: WL40, WL44 0.5-2.0 μM; RA190 1 μM; 16 hours. It is filed as cell-based. As for the experimental part: Cell lysates were loaded on SDS-PAGE, transferred to PVDF membrane, then immunoblotted with anti-GFP, and anti beta-actin antibodies.
In FIG. 18, a reporter cell line expressing Ub-tagged GFP that is constitutively targeted for proteasomal degradation was treated with RA190 ([…]); and JQRA ([…]) for 16 hours. Cell lysates were loaded on SDS-PAGE, transferred to PVDF membrane, then immunoblotted with anti-GFP, and anti-alpha tubulin antibodies.
FIGS. 19A-19I show the exemplary design and characterization of exemplary Rpn13 degrader WL40. […] WL40 was created by linking the Rpn13 inhibitor RA190 to the IMiD thalidomide as a ligand for the CRBN E3 ligase via a PEG linker. […] FIG. 19C is a schematic cartoon for the novel AlphaScreen assay to measure the binding activity of inhibitor with RPN13 proteins. […] FIG. 19E depicts immunoblot analysis of multiple myeloma 1S (MM.1S) cells, which were treated with WL40 or RA190 at the indicated concentrations and time periods; protein lysates were subjected to the immunoblot analysis using anti-Rpn13 or anti-tubulin Abs. FIG. 19F depicts flow cytometry analysis of MM.1S cells, which were treated with DMSO control, WL40 (400 nM), or RA190 (500 nM) for 16 hours; cells were then washed and stained with Rpn13 Ab conjugated with AlexaFluor-647, followed by the flow cytometry analysis. Isotype Ab conjugated to AlexaFluor-647 was used as control for non-specific binding. Data was quantified using FACS Diva (BD Biosciences, USA) and FlowJo (FlowJo LLC, USA). FIG. 19G depicts immunoblot analysis of MM.1S-CRBN KO cells, which were treated with WL40 (400 nM) or RA190 (500 nM) for 16 hours; protein lysates were subjected to the immunoblot analysis using anti-Rpn13 or anti β-actin Abs. […]
To confirm that CRBN presence is a prerequisite for the function of WL40 in cells, CRBN-knockout (KO) MM.1S cells^27, 38 were utilized, and the effect of WL40 on Rpn13 degradation was examined. […] GFPu-1 cells were treated with WL40, and GFP levels were then analyzed using immunoblotting. […]

Series [2] has as its system multiple myeloma cell lines. As to the kind of experiment: Viability of a panel of multiple myeloma cell lines. It is filed as cell-based, Human. The conditions noted are these: multiple myeloma cell lines; 48 hours; Wst-1. The source says:
FIGS. […] Wst-1 assay was used to test cell viability. FIGS. 6A and 6B show the effect of exemplary bifunctional compounds WL40 and WL44 on multiple myeloma cell lines.

The next series deals with normal PBMCs. The experiment in a line: Viability of normal PBMCs. It counts as cell-based, Human. The conditions noted are these: at the IC50; 48 hours; Wst-1. As for the experimental part:
FIGS. 5A and 5B show PBMCs from normal healthy donor treated with WL40 and WL44 at the indicated concentrations for 48 hours. […]
The IC50 of WL40 for cell lines is shown.

For a further series, the system named is MM.1S CRBN KO cells. As to the kind of experiment: MM.1S CRBN KO cell viability. It counts as cell-based, Human. The following applies: MM.1S-CRBN KO; 24 hours; Wst-1. From the text: FIGS. […] Wst-1 assay was used to test cell viability.
The experiment was repeated twice and JQRA concentration was increased (as indicated) at the second time.

In series [3] the test system is HCT116 and HCT116-Rpn13KO cell lines. As to the kind of experiment: HCT116 and HCT116-Rpn13KO cell viability. It is filed as cell-based. The conditions noted are these: HCT116 versus HCT116-Rpn13KO; 48 hours; Wst-1. Here is the method: FIGS. 8A and 8B show HCT116 and HCT116-Rpn13KO cell lines that were treated with WL40 or WL44 at the indicated concentrations for 48 hours. Wst-1 assay was used to test cell viability.
CRISPR-Cas9 genome editing was performed to generate Rpn13-knockout (Rpn13-KO) HCT116 and MM.1S cell lines. Cells were transfected with Rpn13-CRISPR/Cas9-knockout (KO) plasmid (Santa Cruz Biotechnology, Inc., Santa Cruz, Calif., USA) using Lipofectamine 2000 (Thermo Fisher Scientific, Waltham, Mass., USA) or the cell line Nucleofector Kit V (Amaxa Biosystems, Cologne, Germany), respectively. After 48 h incubation, green fluorescent protein (GFP)-positive cells were sorted. Rpn13 KO was confirmed by both protein expression studies and DNA sequencing.

The subject of another series is MM.1S cells. As to the kind of experiment: MM.1S cell viability (WST). The conditions noted are these: 24 hours, Wst-1.

Chain of RPN13 (Q16186 whole entry): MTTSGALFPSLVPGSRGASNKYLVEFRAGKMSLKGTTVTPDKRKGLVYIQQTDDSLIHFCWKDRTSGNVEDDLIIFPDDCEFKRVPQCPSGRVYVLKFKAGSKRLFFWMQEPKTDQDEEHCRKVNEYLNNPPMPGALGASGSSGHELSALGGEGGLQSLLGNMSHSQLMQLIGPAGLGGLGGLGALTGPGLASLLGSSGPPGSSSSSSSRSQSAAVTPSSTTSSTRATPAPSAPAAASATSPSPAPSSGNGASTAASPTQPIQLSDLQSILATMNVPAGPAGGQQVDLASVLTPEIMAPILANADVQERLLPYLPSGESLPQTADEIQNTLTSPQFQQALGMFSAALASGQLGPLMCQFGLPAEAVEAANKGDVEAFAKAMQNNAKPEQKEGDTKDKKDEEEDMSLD

For the compound `CC(C)C[C@@H](C=O)NC(=O)[C@H](CC(C)C)NC(=O)[C@H](CC(C)C)NC(=O)OCc1ccccc1` [MG132, reference compound] (Cbz-Leu-Leu-Leu-aldehyde), at RPN13 (MM.1S, MG132 (10 μM) 1 hour, then WL40 (400 nM) 8 hours), the “WL40-mediated Rpn13 degradation after proteasome inhibitor pretreatment” value was “blocked WL40-mediated Rpn13 degradation”.
For the compound `O=C1CCC(N2C(=O)c3ccc(NCCOCCOCCOCCC(=O)N[C@H](Cc4ccccc4)C(=O)N4C/C(=C\c5ccc(Cl)c(Cl)c5)C(=O)/C(=C/c5ccc(Cl)c(Cl)c5)C4)cc3C2=O)C(=O)N1` (some centres unmarked) [WL44], the “Ub-GFP levels / proteasome function (immunoblot)” value in series [1] is given as “block proteasome function”. Moreover, the figures for the “cell viability IC50” value (in series [2]; in the series on MM.1S cells) were “high IC50 in several cell lines” and “lower IC50 compared to compound RA190”, respectively. Besides, in the series on normal PBMCs, the “viability of normal PBMCs” value is on record as “do not significantly affect the viability”. In the series with MM.1S CRBN KO cells, the cell viability entry is listed as “decrease cell viability”. In series [3], the “RPN13 dependence of cytotoxicity” value is given as “RPN13-dependent”. Moreover, the “Rpn13 levels (immunoblot)” value at RPN13 (MM.1S cells, 200 nM, 400 nM, 800 nM, 4, 8, 16 hours) is reported as “degrade Rpn13”.
